Data taken from EP4745137A1 (Gluetacs Therapeutics (Shanghai) Co., Ltd., priority 2023, dated 2025).

Columns and labels:
SW620 = test: Tumor cell proliferation inhibition (CellTiter-Meiluncell Luminescent Cell Viability Assay), SW620; conditions: Homo sapiens, SW-620, 96 h, read-out: inhibitory activity (IC50, nM) against tumor cells proliferation, SW620
Jurkat = test: Tumor cell proliferation inhibition (CellTiter-Meiluncell Luminescent Cell Viability Assay), Jurkat; conditions: Homo sapiens, 96 h, read-out: inhibitory activity (IC50, nM) against tumor cells proliferation, Jurkat
Vcap = test: Tumor cell proliferation inhibition (CellTiter-Meiluncell Luminescent Cell Viability Assay), Vcap; conditions: Homo sapiens, 96 h, read-out: inhibitory activity (IC50, nM) against tumor cells proliferation, Vcap
IKZF2 = target: T1, IKZF2 (Homo sapiens, UniProt Q96SW2+Q9UKS7); test: Western-blot assay of substrate protein degradation in hPBMCs, IKZF2; format: cell-based; conditions: 24 hours of compound treatment, compounds tested at 50 nM and 500 nM (concentration of the table not stated)
T1 construct: endogenous in cells; host or cells: hPBMCs (Milecell Biotechnologies)

GSPT1 = target: T2, GSPT1 (Homo sapiens, UniProt P15170+Q96SW2); test: Western-blot assay of substrate protein degradation in hPBMCs, GSPT1; format: cell-based; conditions: 24 hours of compound treatment, compounds tested at 50 nM and 500 nM (concentration of the table not stated)
T2 construct: endogenous in cells; host or cells: hPBMCs (Milecell Biotechnologies)

IKZF3 = target: T3, IKZF3 (Homo sapiens, UniProt Q96SW2+Q9UKT9); test: Western-blot assay of substrate protein degradation in hPBMCs, IKZF3; format: cell-based; conditions: 24 hours of compound treatment, compounds tested at 50 nM and 500 nM (concentration of the table not stated)
T3 construct: endogenous in cells; host or cells: hPBMCs (Milecell Biotechnologies)

CAL-62 = test: Tumor cell proliferation inhibition (CellTiter-Meiluncell Luminescent Cell Viability Assay), CAL-62; conditions: Homo sapiens, CAL-62, 96 h, read-out: inhibitory activity (IC50, nM) against tumor cells proliferation, CAL-62
[1] = target: T4, human Cereblon WT GST-tagged protein (Homo sapiens, UniProt Q96SW2); test: CRBN-binding affinity by HTRF (CEREBLON BINDING kit); conditions: HTRF inhibitory activity, CEREBLON BINDING kit; read-out: HTRF IC50
T4 construct: purchased CISBIO 64BDCRBNPEH

CK1α = target: T5, CK1α (Homo sapiens, UniProt P48729+Q96SW2); test: Western-blot assay of substrate protein degradation in hPBMCs, CK1α; format: cell-based; conditions: 24 hours of compound treatment, compounds tested at 50 nM and 500 nM (concentration of the table not stated)
T5 construct: endogenous in cells; host or cells: hPBMCs (Milecell Biotechnologies)

WEE1 = target: T6, WEE1 (Homo sapiens, UniProt P30291+Q96SW2); test: Western-blot assay of substrate protein degradation in hPBMCs, WEE1; format: cell-based; conditions: 24 hours of compound treatment, compounds tested at 50 nM and 500 nM (concentration of the table not stated)
T6 construct: endogenous in cells; host or cells: hPBMCs (Milecell Biotechnologies)

CCRF-CEM = test: Tumor cell proliferation inhibition (CellTiter-Meiluncell Luminescent Cell Viability Assay), CCRF-CEM; conditions: Homo sapiens, 96 h, read-out: inhibitory activity (IC50, nM) against tumor cells proliferation, CCRF-CEM
IKZF1 = target: T7, IKZF1 (Homo sapiens, UniProt Q13422+Q96SW2); test: Western-blot assay of substrate protein degradation in hPBMCs, IKZF1; format: cell-based; conditions: 24 hours of compound treatment, compounds tested at 50 nM and 500 nM (concentration of the table not stated)
T7 construct: endogenous in cells; host or cells: hPBMCs (Milecell Biotechnologies)

NCI-H1975 = test: Tumor cell proliferation inhibition (CellTiter-Meiluncell Luminescent Cell Viability Assay), NCI-H1975; conditions: Homo sapiens, NCI-H1975, 96 h, read-out: inhibitory activity (IC50, nM) against tumor cells proliferation, H1975
TMD8 = test: Tumor cell proliferation inhibition (CellTiter-Meiluncell Luminescent Cell Viability Assay), TMD8; conditions: Homo sapiens, TMD8, 96 h, read-out: inhibitory activity (IC50, nM) against tumor cells proliferation, TMD8
Experimental: The tumor cells used herein were cultured in a cell culture medium listed in table 2 at 37°C in an incubator with 5% CO2. Prior to experimentation, all cell lines used were correctly identified by STR profiling, and tested negative for mycoplasma contamination using a mycoplasma detection kit through routine screenings.
On the following day, the test compounds of the present disclosure were subjected to serial dilution. […] Subsequently, 0.5 µL of the test compound dilution was transferred into the 96-well plate containing the cells, with each well containing 100 µL of cell culture medium. […] Into the 96-well plate, the diluted test compounds and corresponding detection reagents were added, resulting in final test compound concentrations of 500 nM and 10 nM, respectively. The experimental procedure is described below using the diluted 2 µM test compound as an example.
After the cells were treated with the compounds of the present disclosure for a specified period (the treatment durations were shown in Table 3), the cell viability assay reagent was added to the culture medium according to the kit's instructions to determine cell viability. […] All controls were treated using the same procedure as the compounds of the present disclosure. The growth inhibition curves for the compounds of the present disclosure were plotted using Prism GraphPad software, and the IC50 values were calculated therefrom.

[2] = system: Human acute T lymphocytic leukemia cells (Molt-4); test: Tumor cell proliferation inhibition (CellTiter-Meiluncell Luminescent Cell Viability Assay), Molt-4; conditions: MOLT-4, 96 h, read-out: inhibitory activity (IC50, nM) against tumor cells proliferation, Molt 4
[3] = system: Human breast cancer cells (MDA-MB-231); test: Tumor cell proliferation inhibition (CellTiter-Meiluncell Luminescent Cell Viability Assay), MDA-MB-231; conditions: MDA-MB-231, 96 h, read-out: inhibitory activity (IC50, nM) against tumor cells proliferation, MDA-MB-231

T4 sequence (Q96SW2 whole entry): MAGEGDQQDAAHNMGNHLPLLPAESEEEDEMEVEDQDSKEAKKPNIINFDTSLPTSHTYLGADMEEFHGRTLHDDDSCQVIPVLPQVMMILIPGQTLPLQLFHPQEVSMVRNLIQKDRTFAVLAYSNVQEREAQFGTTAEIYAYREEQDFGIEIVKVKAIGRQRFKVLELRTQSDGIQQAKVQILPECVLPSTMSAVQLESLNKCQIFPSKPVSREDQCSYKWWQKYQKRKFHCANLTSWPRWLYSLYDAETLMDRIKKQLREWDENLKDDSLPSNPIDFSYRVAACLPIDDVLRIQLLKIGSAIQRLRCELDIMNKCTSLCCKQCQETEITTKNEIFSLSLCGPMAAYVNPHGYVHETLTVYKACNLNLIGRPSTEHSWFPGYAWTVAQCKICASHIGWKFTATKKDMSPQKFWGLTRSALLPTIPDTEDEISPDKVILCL
T5 sequence (P48729 whole entry): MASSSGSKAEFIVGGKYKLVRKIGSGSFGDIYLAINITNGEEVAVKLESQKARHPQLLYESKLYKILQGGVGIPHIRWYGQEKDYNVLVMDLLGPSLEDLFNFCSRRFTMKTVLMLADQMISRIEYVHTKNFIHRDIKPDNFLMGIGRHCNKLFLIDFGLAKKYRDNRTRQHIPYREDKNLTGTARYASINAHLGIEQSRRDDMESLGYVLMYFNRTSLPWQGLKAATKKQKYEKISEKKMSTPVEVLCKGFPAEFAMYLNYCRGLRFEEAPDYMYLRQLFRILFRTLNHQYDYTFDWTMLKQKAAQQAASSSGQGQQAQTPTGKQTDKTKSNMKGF
T5 sequence (Q96SW2 whole entry): as the sequence (Q96SW2 whole entry) above
T5 sequence (Q16531 whole entry partner): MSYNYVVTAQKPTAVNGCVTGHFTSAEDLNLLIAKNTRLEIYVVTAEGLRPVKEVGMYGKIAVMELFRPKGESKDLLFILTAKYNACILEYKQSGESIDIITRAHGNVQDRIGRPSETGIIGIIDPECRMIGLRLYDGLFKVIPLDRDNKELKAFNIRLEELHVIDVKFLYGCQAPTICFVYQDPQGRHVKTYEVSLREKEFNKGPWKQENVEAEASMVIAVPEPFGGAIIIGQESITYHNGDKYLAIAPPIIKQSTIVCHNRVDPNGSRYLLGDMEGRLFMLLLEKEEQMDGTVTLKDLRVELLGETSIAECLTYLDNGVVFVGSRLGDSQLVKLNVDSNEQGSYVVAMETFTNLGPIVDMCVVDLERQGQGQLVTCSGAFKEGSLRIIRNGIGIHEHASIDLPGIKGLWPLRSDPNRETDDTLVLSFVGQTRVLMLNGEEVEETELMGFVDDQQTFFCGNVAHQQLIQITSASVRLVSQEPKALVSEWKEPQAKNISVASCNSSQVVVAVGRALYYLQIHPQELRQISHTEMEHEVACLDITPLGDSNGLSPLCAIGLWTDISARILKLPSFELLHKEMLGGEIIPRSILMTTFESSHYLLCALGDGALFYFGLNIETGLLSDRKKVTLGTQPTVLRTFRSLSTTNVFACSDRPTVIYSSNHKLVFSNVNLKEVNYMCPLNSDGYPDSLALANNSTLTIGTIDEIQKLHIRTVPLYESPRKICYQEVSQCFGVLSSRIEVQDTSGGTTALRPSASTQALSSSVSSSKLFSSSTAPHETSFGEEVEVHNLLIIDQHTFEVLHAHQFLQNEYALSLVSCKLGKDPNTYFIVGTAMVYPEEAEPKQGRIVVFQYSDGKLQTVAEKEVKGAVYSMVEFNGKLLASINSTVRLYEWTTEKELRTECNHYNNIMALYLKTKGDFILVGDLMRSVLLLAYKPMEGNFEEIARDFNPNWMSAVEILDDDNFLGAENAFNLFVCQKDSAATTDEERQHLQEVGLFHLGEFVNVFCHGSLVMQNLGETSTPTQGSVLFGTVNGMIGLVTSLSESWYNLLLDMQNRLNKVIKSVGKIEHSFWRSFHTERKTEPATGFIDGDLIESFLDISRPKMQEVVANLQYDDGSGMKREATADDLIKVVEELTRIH
T3 sequence (Q9UKT9 whole entry): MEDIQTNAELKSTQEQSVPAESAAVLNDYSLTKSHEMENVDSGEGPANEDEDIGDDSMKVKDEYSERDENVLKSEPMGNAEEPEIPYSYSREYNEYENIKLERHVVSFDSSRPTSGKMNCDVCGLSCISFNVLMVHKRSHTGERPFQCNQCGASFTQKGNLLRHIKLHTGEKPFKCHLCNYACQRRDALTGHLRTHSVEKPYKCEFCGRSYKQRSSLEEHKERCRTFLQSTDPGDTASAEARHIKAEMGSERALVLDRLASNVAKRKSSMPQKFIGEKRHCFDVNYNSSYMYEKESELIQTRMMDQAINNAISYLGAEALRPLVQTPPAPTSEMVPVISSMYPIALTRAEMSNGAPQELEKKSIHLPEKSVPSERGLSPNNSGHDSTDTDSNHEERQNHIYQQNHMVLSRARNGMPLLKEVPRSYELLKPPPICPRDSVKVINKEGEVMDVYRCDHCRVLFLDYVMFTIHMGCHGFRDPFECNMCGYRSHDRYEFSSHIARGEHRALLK
T3 sequence (Q96SW2 whole entry): as the sequence (Q96SW2 whole entry) above
T3 sequence (Q16531 whole entry partner): as the sequence (Q16531 whole entry partner) above
T2 sequence (P15170 whole entry): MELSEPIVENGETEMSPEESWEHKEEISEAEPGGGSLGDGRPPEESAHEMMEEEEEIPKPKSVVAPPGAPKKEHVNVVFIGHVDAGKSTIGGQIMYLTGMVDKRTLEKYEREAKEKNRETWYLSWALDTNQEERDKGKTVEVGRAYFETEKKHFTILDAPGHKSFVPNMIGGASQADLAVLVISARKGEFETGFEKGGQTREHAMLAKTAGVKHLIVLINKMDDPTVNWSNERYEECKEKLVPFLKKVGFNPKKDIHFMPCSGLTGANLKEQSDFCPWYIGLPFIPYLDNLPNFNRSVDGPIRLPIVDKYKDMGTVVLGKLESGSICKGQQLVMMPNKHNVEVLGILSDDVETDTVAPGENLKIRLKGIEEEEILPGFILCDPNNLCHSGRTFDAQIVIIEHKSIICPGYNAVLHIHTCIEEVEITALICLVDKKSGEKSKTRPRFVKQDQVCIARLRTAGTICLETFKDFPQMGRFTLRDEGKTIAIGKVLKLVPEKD
T2 sequence (Q96SW2 whole entry): as the sequence (Q96SW2 whole entry) above
T2 sequence (Q16531 whole entry partner): as the sequence (Q16531 whole entry partner) above
T7 sequence (Q13422 whole entry): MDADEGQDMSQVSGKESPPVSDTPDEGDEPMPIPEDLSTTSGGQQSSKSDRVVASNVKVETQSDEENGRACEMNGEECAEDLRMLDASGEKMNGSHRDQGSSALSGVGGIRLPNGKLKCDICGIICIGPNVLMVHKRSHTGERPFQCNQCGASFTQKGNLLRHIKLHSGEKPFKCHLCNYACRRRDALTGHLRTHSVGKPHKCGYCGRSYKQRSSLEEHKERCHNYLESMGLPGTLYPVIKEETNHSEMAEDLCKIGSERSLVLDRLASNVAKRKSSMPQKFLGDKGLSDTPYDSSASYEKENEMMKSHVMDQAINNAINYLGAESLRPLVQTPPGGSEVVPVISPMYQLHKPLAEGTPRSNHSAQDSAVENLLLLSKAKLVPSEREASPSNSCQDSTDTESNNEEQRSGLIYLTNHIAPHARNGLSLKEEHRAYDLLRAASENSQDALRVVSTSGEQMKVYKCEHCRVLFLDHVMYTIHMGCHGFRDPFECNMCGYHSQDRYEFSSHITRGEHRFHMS
T7 sequence (Q96SW2 whole entry): as the sequence (Q96SW2 whole entry) above
T7 sequence (Q16531 whole entry partner): as the sequence (Q16531 whole entry partner) above
T6 sequence (P30291 whole entry): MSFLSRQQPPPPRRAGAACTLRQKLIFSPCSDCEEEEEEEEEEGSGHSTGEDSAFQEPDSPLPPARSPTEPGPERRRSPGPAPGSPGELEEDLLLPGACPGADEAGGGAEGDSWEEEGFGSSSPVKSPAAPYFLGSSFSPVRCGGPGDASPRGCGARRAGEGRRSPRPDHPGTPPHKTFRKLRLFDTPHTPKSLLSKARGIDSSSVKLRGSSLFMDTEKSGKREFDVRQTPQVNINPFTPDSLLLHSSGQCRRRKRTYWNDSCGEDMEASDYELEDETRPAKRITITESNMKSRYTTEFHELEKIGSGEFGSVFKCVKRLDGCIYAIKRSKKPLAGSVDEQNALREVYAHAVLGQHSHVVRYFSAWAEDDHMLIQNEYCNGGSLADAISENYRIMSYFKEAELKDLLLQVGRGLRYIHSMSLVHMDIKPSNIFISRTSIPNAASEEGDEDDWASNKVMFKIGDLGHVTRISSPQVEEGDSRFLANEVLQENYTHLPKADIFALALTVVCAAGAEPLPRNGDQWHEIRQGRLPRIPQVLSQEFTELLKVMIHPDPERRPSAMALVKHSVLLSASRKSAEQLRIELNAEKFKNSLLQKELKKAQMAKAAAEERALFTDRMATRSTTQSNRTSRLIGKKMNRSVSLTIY
T6 sequence (Q96SW2 whole entry): as the sequence (Q96SW2 whole entry) above
T6 sequence (Q16531 whole entry partner): as the sequence (Q16531 whole entry partner) above

Structure (SMILES)	IC50 (SW620) [nM]	IC50 (Jurkat) [nM]	IC50 (Vcap) [nM]	IKZF2 substrate protein remaining % (IKZF2)	GSPT1 substrate protein remaining % (GSPT1)	IKZF3 substrate protein remaining % (IKZF3)	IC50 (CAL-62) [nM]	IC50 [1] [nM]	CK1a substrate protein remaining % (CK1α)	Weel substrate protein remaining % (WEE1)	IC50 (CCRF-CEM) [nM]	IKZF 1 substrate protein remaining % (IKZF1)	IC50 (NCI-H1975) [nM]	IC50 (TMD8) [nM]	IC50 [2] [nM]	IC50 [3] [nM]
O=C1CCC(N2Cc3cc(CN4CCN(c5nsc6ccccc56)CC4)ccc3C2=O)C(=O)N1 (stereo not drawn) [GT-04255, 3-(5-((4-(benzo[d]isothiazol-3-yl)piperazin-1-yl)methyl)-1-oxoisoindolin-2-yl)piperidine-2,6-dione]	100 to 500	100 to 500	500 to 1000	A (0% ≤ substrate protein remaining % ≤ 80%)	A (0% ≤ substrate protein remaining % ≤ 80%)	A (0% ≤ substrate protein remaining % ≤ 80%)	50 to 100	500 to 1000	A (0% ≤ substrate protein remaining % ≤ 80%)	A (0% ≤ substrate protein remaining % ≤ 80%)	10 to 50	A (0% ≤ substrate protein remaining % ≤ 80%)				
Cc1nc(C2=CCN(Cc3ccc4c(c3)CN(C3CCC(=O)NC3=O)C4=O)CC2)c2ccsc2n1 (stereo not drawn) [GT-04718, 3-(5-((4-(2-methylthieno[2,3-d]pyrimidin-4-yl)-3,6-dihydropyridin-1(2H)-yl)methyl)-1-oxoisoindolin-2-yl)piperidine-2,6-dione]				A (0% ≤ substrate protein remaining % ≤ 80%)	A (0% ≤ substrate protein remaining % ≤ 80%)	A (0% ≤ substrate protein remaining % ≤ 80%)		500 to 1000	B (80%< substrate protein remaining %≤ 100%)	A (0% ≤ substrate protein remaining % ≤ 80%)		A (0% ≤ substrate protein remaining % ≤ 80%)	10 to 50	10 to 50	1 to 5	5 to 10
Cn1cc(C2=CCN(Cc3ccc4c(c3)CN(C3CCC(=O)NC3=O)C4=O)CC2)c2ccc(F)cc21 (stereo not drawn) [GT-04723, 3-(5-((4-(6-fluoro-1-methyl-1H-indol-3-yl)-3,6-dihydropyridin-1(2H)-yl)methyl)-1-oxoisoindolin-2-yl)piperidine-2,6-dione]				A (0% ≤ substrate protein remaining % ≤ 80%)	A (0% ≤ substrate protein remaining % ≤ 80%)	A (0% ≤ substrate protein remaining % ≤ 80%)		< 500	A (0% ≤ substrate protein remaining % ≤ 80%)	A (0% ≤ substrate protein remaining % ≤ 80%)		A (0% ≤ substrate protein remaining % ≤ 80%)	10 to 50	10 to 50	1 to 5	5 to 10
O=C1CCC(N2Cc3cc(CN4C[C@H]5C[C@@H]4CN5c4cccc(Cl)c4Cl)ccc3C2=O)C(=O)N1 (stereo partly drawn) [GT-04724, 3-(5-(((1R,4R)-5-(2,3-dichlorophenyl)-2,5-diazabicyclo[2.2.1]heptan-2-yl)methyl)-1-oxoisoindolin-2-yl)piperidine-2,6-dione]				A (0% ≤ substrate protein remaining % ≤ 80%)	A (0% ≤ substrate protein remaining % ≤ 80%)	A (0% ≤ substrate protein remaining % ≤ 80%)		< 500	A (0% ≤ substrate protein remaining % ≤ 80%)	A (0% ≤ substrate protein remaining % ≤ 80%)		A (0% ≤ substrate protein remaining % ≤ 80%)	50 to 100	50 to 100	5 to 10	10 to 50
Cc1ccsc1C1=CCN(Cc2ccc3c(c2F)CN(C2CCC(=O)NC2=O)C3=O)CC1 (stereo not drawn) [GT-04729, 3-(4-fluoro-5-((4-(3-methylthiophen-2-yl)-3,6-dihydropyridin-1(2H)-yl)methyl)-1-oxoisoindolin-2-yl)piperidine-2,6-dione]				A (0% ≤ substrate protein remaining % ≤ 80%)	A (0% ≤ substrate protein remaining % ≤ 80%)	A (0% ≤ substrate protein remaining % ≤ 80%)		500 to 1000	B (80%< substrate protein remaining %≤ 100%)	A (0% ≤ substrate protein remaining % ≤ 80%)		A (0% ≤ substrate protein remaining % ≤ 80%)	10 to 50	10 to 50	1 to 5	1 to 5
Cc1ccsc1C1=CCN(Cc2cc(F)c3c(c2)CN(C2CCC(=O)NC2=O)C3=O)CC1 (stereo not drawn) [GT-04730, 3-(7-fluoro-5-((4-(3-methylthiophen-2-yl)-3,6-dihydropyridin-1(2H)-yl)methyl)-1-oxoisoindolin-2-yl)piperidine-2,6-dione]				A (0% ≤ substrate protein remaining % ≤ 80%)	A (0% ≤ substrate protein remaining % ≤ 80%)	A (0% ≤ substrate protein remaining % ≤ 80%)		500 to 1000	A (0% ≤ substrate protein remaining % ≤ 80%)	A (0% ≤ substrate protein remaining % ≤ 80%)		A (0% ≤ substrate protein remaining % ≤ 80%)	10 to 50	10 to 50	1 to 5	10 to 50
O=C1CCC(N2Cc3c(ccc(CN4CCC(c5noc6cc(F)ccc56)CC4)c3F)C2=O)C(=O)N1 (stereo not drawn) [GT-04765, 3-(4-fluoro-5-((4-(6-fluorobenzo[d]isoxazol-3-yl)piperidin-1-yl)methyl)-1-oxoisoindolin-2-yl)piperidine-2,6-dione]				A (0% ≤ substrate protein remaining % ≤ 80%)	A (0% ≤ substrate protein remaining % ≤ 80%)	A (0% ≤ substrate protein remaining % ≤ 80%)		1000 to 1500	A (0% ≤ substrate protein remaining % ≤ 80%)	A (0% ≤ substrate protein remaining % ≤ 80%)		A (0% ≤ substrate protein remaining % ≤ 80%)	50 to 100	100 to 500	5 to 10	10 to 50
